From patent US5747660A, “Nucleic acid encoding prostaglandin F2α receptor regulatory protein” (priority 1995, dated 1998)

B1: Prolactin Receptor: over-expressed control protein, cotransfected construct (protein, UniProt P16471 25-622, looked up)
Prolactin receptor: QLPPGKPEIFKCRSPNKETFTCWWRPGTDGGLPTNYSLTYHREGETLMHECPDYITGGPNSCHFGKQYTSMWRTYIMMVNATNQMGSSFSDELYVDVTYIVQPDPPLELAVEVKQPEDRKPYLWIKWSPPTLIDLKTGWFTLLYEIRLKPEKAAEWEIHFAGQQTEFKILSLHPGQKYLVQVRCKPDHGYWSAWSPATFIQIPSDFTMNDTTVWISVAVLSAVICLIIVWAVALKGYSMVTCIFPPVPGPKIKGFDAHLLEKGKSEELLSALGCQDFPPTSDYEDLLVEYLEVDDSEDQHLMSVHSKEHPSQGMKPTYLDPDTDSGRGSCDSPSLLSEKCEEPQANPSTFYDPEVIEKPENPETTHTWDPQCISMEGKIPYFHAGGSKCSTWPLPQPSQHNPRSSYHNITDVCELAVGPAGAPATLLNEAGKDALKSSQTIKSREEGKATQQREVESFHSETDQDTPWLLPQEKTPFGSAKPLDYVEIHKVNKDGALSLLPKQRENSGKPKKPGTPENNKEYAKVSGVMDNNILVLVPDPHAKNVACFEESAKEAPPSLEQNQAEKALANFTATSSKCRLQLGGLDYLDPACFTHSFH
modifications: over-expressed construct
B2: Progesterone Receptor: over-expressed control protein, cotransfected construct (protein, UniProt P06401 1-933, looked up)
Progesterone receptor: MTELKAKGPRAPHVAGGPPSPEVGSPLLCRPAAGPFPGSQTSDTLPEVSAIPISLDGLLFPRPCQGQDPSDEKTQDQQSLSDVEGAYSRAEATRGAGGSSSSPPEKDSGLLDSVLDTLLAPSGPGQSQPSPPACEVTSSWCLFGPELPEDPPAAPATQRVLSPLMSRSGCKVGDSSGTAAAHKVLPRGLSPARQLLLPASESPHWSGAPVKPSPQAAAVEVEEEDGSESEESAGPLLKGKPRALGGAAAGGGAAAVPPGAAAGGVALVPKEDSRFSAPRVALVEQDAPMAPGRSPLATTVMDFIHVPILPLNHALLAARTRQLLEDESYDGGAGAASAFAPPRSSPCASSTPVAVGDFPDCAYPPDAEPKDDAYPLYSDFQPPALKIKEEEEGAEASARSPRSYLVAGANPAAFPDFPLGPPPPLPPRATPSRPGEAAVTAAPASASVSSASSSGSTLECILYKAEGAPPQQGPFAPPPCKAPGASGCLLPRDGLPSTSASAAAAGAAPALYPALGLNGLPQLGYQAAVLKEGLPQVYPPYLNYLRPDSEASQSPQYSFESLPQKICLICGDEASGCHYGVLTCGSCKVFFKRAMEGQHNYLCAGRNDCIVDKIRRKNCPACRLRKCCQAGMVLGGRKFKKFNKVRVVRALDAVALPQPVGVPNESQALSQRFTFSPGQDIQLIPPLINLLMSIEPDVIYAGHDNTKPDTSSSLLTSLNQLGERQLLSVVKWSKSLPGFRNLHIDDQITLIQYSWMSLMVFGLGWRSYKHVSGQMLYFAPDLILNEQRMKESSFYSLCLTMWQIPQEFVKLQVSQEEFLCMKVLLLLNTIPLEGLRSQTQFEEMRSSYIRELIKAIGLRQKGVVSSSQRFYQLTKLLDNLHDLVKQLHLYCLNTFIQSRALSVEFPEMMSEVIAAQLPKILAGMVKPLLFHKK

What was measured:
[1] = test system: prostaglandin F2α receptor (FP); experiment: Cotransfection of a third construct along with FP and FPRP, [3H]PGF2α binding; assay type: cell-based; conditions: FP + FPRP + the named third construct; FP + pSG5 = 100
Description: Therefore, a strategy based on cotransfection of a third construct (along with FP and FPRP) was pursued. These third party constructs included ones coding for the protease inhibitors alpha-l trypsin inhibitor and crmA, an inhibitor of cell death, bcl2, and few nonspecific control molecules including the vitamin D receptor, a secreted immunoglobulin molecule, and the empty parent vector pSG5 only. All groups and treatments were compared with control treatment of FP+pSG5 vs. FP+FPRP.

[2] = test system: prostaglandin F2α receptor (FP); experiment: [3H]PGF2α specific binding to COS cells cotransfected with FP cDNA and a test cDNA construct; assay type: cell-based, rat, mouse; conditions: COS cells cotransfected with FP + the named DNA; FP alone = 100
[3] = test system: prostaglandin F2α receptor (FP); experiment: Effect of intracellular messenger altering agents on [3H]PGF2α binding and on FPRP inhibition of it; assay type: cell-based; conditions: for % Control [^3 H]PGF2α Binding, FP + FPRP: FP + FPRP transfected cells treated with the agent; for % Control [^3 H]PGF2α Binding, FP + pSG5: FP + pSG5 transfected cells treated with the agent; for % Inhibition (FPRP inhibition of [^3 H]PGF2α binding): in presence of the agent at the concentration/time given; for effect of agent on FPRP inhibition of [^3 H]PGF2α binding (words): FP + FPRP transfected cells pretreated with the agent; for effect of agent on basal [^3 H]PGF2α binding: FP transfected cells pretreated with the agent
Procedure: In a third experiment, transfected cells were treated for 30 min with exposure to the following: phorbol 12-myristate 13-acetate 10^-8 M, prostaglandin E1, 10^-7 M, A23187 10^-6 M, okadaic acid 10^-6 M, or 8-Br-cAMP 10^-5 M (Table 4).
The effect of brefeldin A (3 μg/ml, 2 hr), chloroquine (100 μM, 6 hr) and tunicamysin (2.5 μg/ml, 20 hr) was determined.

[4] = target: prostaglandin F2α receptor (FP), cDNA construct whose species the place does not tell
[5] = target: rat prostaglandin F2α receptor regulatory protein (FPRP) (rat)

| Molecule | % Control [^3 H]PGF2α Binding, FP + FPRP [3] [%] | % Control [^3 H]PGF2α Binding, FP + pSG5 [3] [%] | % Inhibition (FPRP inhibition of [^3 H]PGF2α binding) [3] [%] | % control ^3 H!PGF2α specific binding, co-transfection [4] [% control] | other results |
| --- | --- | --- | --- | --- | --- |
| 1 Trypsin Inhibitor: protease inhibitor alpha-l trypsin inhibitor, cotransfected construct |  |  |  |  | % Control [^3 H]PGF2α Binding [1]: 38 ± 3%; % CONTROL, [^3 H]PGF2α specific binding [2]: 141 ± 3% |
| Nc1ncnc2c1nc(Br)n2[C@@H]1O[C@@H]2COP(=O)(O)O[C@H]2[C@H]1O [8-Br-cAMP] | 52 ± 3 | 94 ± 6 | 45 |  |  |
| C[C@H]1CCC/C=C/[C@@H]2C[C@H](O)C[C@H]2[C@H](O)/C=C/C(=O)O1 [Brefeldin A, brefeldin A] | 27 ± 3 | 91 ± 3 | 70 |  | effect of agent on FPRP inhibition of [^3 H]PGF2α binding (words) [3]: no effect; effect of agent on FPRP inhibition of [^3 H]PGF2α binding (words) ([3]; listed as brefeldin A): little or no effect; effect of agent on basal [^3 H]PGF2α binding [3]: little or no effect |
| CNc1ccc2oc(C[C@H]3O[C@@]4(CC[C@H]3C)O[C@H]([C@H](C)C(=O)c3ccc[nH]3)[C@H](C)C[C@H]4C)nc2c1C(=O)O [Calcium ionophore A23187] | 51 ± 6 | 102 ± 6 | 50 |  |  |
| CCN(CC)CCCC(C)Nc1ccnc2cc(Cl)ccc12 (stereo not drawn) [Chloroquine, chloroquine] | 37 ± 3 | 91 ± 3 | 59 |  | effect of agent on FPRP inhibition of [^3 H]PGF2α binding (words) [3]: little or no effect; effect of agent on basal [^3 H]PGF2α binding [3]: little or no effect |
| C=C1[C@@H](O)[C@@H]2O[C@]3(CC[C@H](/C=C/[C@@H](C)[C@@H]4CC(C)=C[C@@]5(O[C@H](C[C@@](C)(O)C(=O)O)CC[C@H]5O)O4)O3)CC[C@H]2O[C@@H]1[C@@H](O)C[C@H](C)[C@H]1O[C@@]2(CCCCO2)CC[C@H]1C [Okadaic acid, okadaic acid] | 45 ± 3 | 94 ± 3 | 52 |  |  |
| CCCCC[C@H](O)/C=C/[C@H]1[C@H](O)CC(=O)[C@@H]1CCCCCCC(=O)O [PGE1, prostaglandin E1] | 51 ± 3 | 100 ± 3 | 49 |  |  |
| CCCCCCCCCCCCCC(=O)OC1C(C)C2(O)C(C=C(CO)CC3(O)C(=O)C(C)=CC32)C2C(C)(C)C12OC(C)=O (stereo not drawn) [Phorbol 12-myristate 13-acetate, phorbol 12-myristate 13-acetate] | 54 ± 3 | 105 ± 7 | 50 |  |  |
| Progesterone Receptor |  |  |  | 103 |  |
| Prolactin Receptor |  |  |  | 130 |  |
| TGN38 |  |  |  | 135 |  |
| Vitamin D receptor |  |  |  | 131 | % control ^3 H!PGF2α binding, third construct co-transfected with FP and FPRP [5]: 36 % control |
| Vitamin D receptor: over-expressed control protein, cotransfected construct |  |  |  |  | % Control [^3 H]PGF2α Binding [1]: 36 ± 3%; % CONTROL, [^3 H]PGF2α specific binding [2]: 131 ± 7% |
| alpha-1 trypsin inhibitor |  |  |  | 141 | % control ^3 H!PGF2α binding, third construct co-transfected with FP and FPRP [5]: 38 % control |
| bcl-2 |  |  |  | 84 | % control ^3 H!PGF2α binding, third construct co-transfected with FP and FPRP [5]: 30 % control |
| bcl-2: an inhibitor of cell death, cotransfected construct |  |  |  |  | % Control [^3 H]PGF2α Binding [1]: 30 ± 3%; % CONTROL, [^3 H]PGF2α specific binding [2]: 84 ± 5% |
| crmA |  |  |  | 141 | % control ^3 H!PGF2α binding, third construct co-transfected with FP and FPRP [5]: 29 % control |
| tunicamycin | 23 ± 3 | 46 ± 3 | 50 |  | effect of agent on FPRP inhibition of [^3 H]PGF2α binding (words) [3]: approximately the same extent; effect of agent on basal [^3 H]PGF2α binding [3]: decreased |
| βPDGF Receptor |  |  |  | 90 |  |
| B1 |  |  |  |  | % CONTROL, [^3 H]PGF2α specific binding [2]: 130 ± 7% |
| B2 |  |  |  |  | % CONTROL, [^3 H]PGF2α specific binding [2]: 103 ± 5% |
